51 compounds from patent US11266643B2, “Triaryl compounds for treatment of PD-L1 diseases” (CHEMOCENTRYX, INC., priority 2019, dated 2022) can be followed below.

The structures appear in SMILES notation.

The IC50 is the point on the concentration scale where inhibition reaches its midpoint.

The target in the test is human PD-L1 (Homo sapiens (Human), UniProt Q9NZQ7). Kind of test: Enzyme-Linked Immunosorbent Assay (ELISA), PD-1/PD-L1 binding. Particulars: human PD-1/PD-L1 ELISA, plates coated with human PD-L1. The method, then: 96 Well plates were coated with […] of human PD-L1 (obtained from R&D) in PBS overnight at 4° C. The wells were then blocked with 2% BSA in PBS (W/V) with 0.05% TWEEN-20 for 1 hour at 37° C. The plates were washed 3 times with PBS/0.05% TWEEN-20 and the compounds were serial diluted (1:5) in dilution medium and added to the ELISA plates. Human PD-1 […] 0.31 μg/mL (ACRO Biosystems) were added and incubated for 1 hour at 37° C. then washed 3 times with PBS/0.05% TWEEN-20. A second block was performed with 2% BSA in PBS (W/V)/0.05% TWEEN-20 for 10 min at 37° C. and the plates were washed 3 times with PBS/0.05% TWEEN-20. Streptavidin-HRP was added for 1 hour at 37° C. then the plates were washed 3 times with PBS/0.05% TWEEN-20. TMB substrate was added and reacted for 20 min at 37° C. A stop solution (2 N aqueous H2SO4) was added. The absorbance was read at 450 nm using a micro-plate spectrophotometer.
Chain of human PD-L1 (Q9NZQ7 19-239): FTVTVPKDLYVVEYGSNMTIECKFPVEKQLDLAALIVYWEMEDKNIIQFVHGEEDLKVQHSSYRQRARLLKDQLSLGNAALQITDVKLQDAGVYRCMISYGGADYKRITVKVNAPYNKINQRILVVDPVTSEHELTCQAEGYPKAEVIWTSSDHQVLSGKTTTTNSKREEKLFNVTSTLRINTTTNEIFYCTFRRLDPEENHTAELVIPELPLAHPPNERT
Using the methods described in the Examples above, the compounds in Table 2 were prepared & tested for biological activity using the ELISA method described above.
In general terms: ELISA stands for enzyme-linked immunosorbent assay.
Compound `COc1cc(-c2cccc(-c3cccc(NC(=O)c4nn(C)c(=O)n(C)c4=O)c3C)c2C)cc(F)c1CNC[C@@H]1CCC(=O)N1C` [Example 1.056] displayed an IC50 of less than 10 nM. As for `COc1cc(-c2cccc(-c3cccc(NC(=O)c4cn(C)c(=O)n(C)c4=O)c3C)c2C)cc(F)c1CN[C@@H]1COC[C@H]1O` [Example 1.057], the IC50 was less than 10 nM. `COc1cc(-c2cccc(-c3cccc(NC(=O)c4nn(C)c(=O)n(C)c4=O)c3C)c2C)cc(F)c1CN[C@@H]1CCC(=O)NC1=O` [Example 1.058] came in with an IC50 of 10 to 1000 nM. The same measure for `COc1cc(-c2cccc(-c3cccc(NC(=O)c4nn(C)c(=O)n(C)c4=O)c3C)c2C)cc(F)c1CN[C@@H]1CCCNC1=O` [Example 1.059]: 10 to 1000 nM; for `COc1cc(-c2cccc(-c3cccc(NC(=O)c4nn(C)c(=O)n(C)c4=O)c3C)c2C)cc(F)c1CN[C@H]1CCCNC1=O` [Example 1.060]: 10 to 1000 nM; for `COc1cc(-c2cccc(-c3cccc(NC(=O)c4nn(C)c(=O)n(C)c4=O)c3C)c2C)cc(F)c1CNCCCC(N)=O` [Example 1.062]: less than 10 nM.

`COc1cc(-c2cccc(-c3cccc(NC(=O)c4nn(C)c(=O)n(C)c4=O)c3C)c2C)cc(F)c1CNCC(C)(C)C(N)=O` [Example 1.063] had an IC50 of less than 10 nM. Turning to `COc1cc(-c2cccc(-c3cccc(NC(=O)c4nn(C)c(=O)n(C)c4=O)c3C)c2C)cc(F)c1CNCC(N)=O` [Example 1.064], the IC50 is less than 10 nM. For the compound `COc1cc(-c2cccc(-c3cccc(NC(=O)c4nn(C)c(=O)n(C)c4=O)c3C)c2C)cc(F)c1CNC(C)C` [Example 1.065], the IC50 is less than 10 nM.

`COc1cc(-c2cccc(-c3cccc(NC(=O)c4cncn(C)c4=O)c3C)c2C)cc(F)c1CN[C@@H]1CCOC[C@@H]1O` [Example 1.066] returned an IC50 of less than 10 nM.

`COc1cc(-c2cccc(-c3cccc(NC(=O)c4cn(C)c(=O)n(C)c4=O)c3C)c2C)cc(F)c1CNCC1CCNC(=O)C1` (stereo not drawn) [Example 1.067] gave an IC50 of less than 10 nM. The same measure for `COc1cc(-c2cccc(-c3cccc(NC(=O)c4nn(C)c(=O)n(C)c4=O)c3C)c2C)cc(F)c1CNC[C@H]1CCC(=O)N1` [Example 1.068]: less than 10 nM. `COc1cc(-c2cccc(-c3cccc(NC(=O)c4nn(C)c(=O)n(C)c4=O)c3C)c2C)cc(F)c1CN[C@@H]1CCC(=O)NC1` [Example 1.069] returned an IC50 of less than 10 nM.

In the case of `COc1cc(-c2cccc(-c3cccc(NC(=O)c4nn(C)c(=O)n(C)c4=O)c3C)c2C)cc(F)c1CN[C@H]1CNC(=O)C1` [Example 1.070], the IC50 is less than 10 nM. For `COc1cc(-c2cccc(-c3cccc(NC(=O)c4c[nH]c(=O)n(C)c4=O)c3C)c2C)cc(F)c1CNCC1CCNC(=O)C1` (stereo not drawn) [Example 1.071], the IC50 was less than 10 nM. Then `COc1cc(-c2cccc(-c3cccc(NC(=O)c4cn(C)c(=O)n(C)c4=O)c3C)c2C)cc(F)c1CN[C@H]1COC[C@@H]1O` [Example 1.072], with less than 10 nM; and `COc1cc(-c2cccc(-c3cccc(NC(=O)c4c[nH]c(=O)n(C)c4=O)c3C)c2C)cc(F)c1CN(C)[C@@H]1CNC(=O)C1` [Example 1.073], with 10 to 1000 nM; and `COc1cc(-c2cccc(-c3cccc(NC(=O)c4cccn(C)c4=O)c3C)c2C)cc(F)c1CN(C)[C@@H]1CNC(=O)C1` [Example 1.074], with 10 to 1000 nM. Consider `COc1cc(-c2cccc(-c3cccc(NC(=O)c4nn(C)c(=O)n(C)c4=O)c3C)c2C)cc(F)c1CN[C@@H]1CCOC[C@@H]1O` [Example 1.076], for which the IC50 is less than 10 nM. In turn, `COc1cc(-c2cccc(-c3cccc(NC(=O)c4nn(C)c(=O)n(C)c4=O)c3C)c2C)cc(F)c1CN(C)C[C@@H]1CCC(=O)N1` [Example 1.077] had an IC50 of less than 10 nM.

With `COc1cc(-c2cccc(-c3cccc(NC(=O)c4c[nH]c(=O)n(C)c4=O)c3C)c2C)cc(F)c1CN[C@@H]1COC[C@H]1O` [Example 1.078], the IC50 was less than 10 nM. In turn, `COc1cc(-c2cccc(-c3cccc(NC(=O)c4c[nH]c(=O)n(C)c4=O)c3C)c2C)cc(F)c1CN[C@H]1COC[C@@H]1O` [Example 1.079] yielded an IC50 of less than 10 nM. As for `COc1cc(-c2cccc(-c3cccc(NC(=O)c4cn(C)c(=O)n(C)c4=O)c3C)c2C)cc(F)c1CNCC(C)(C)C(N)=O` [Example 1.080], the 50% inhibitory concentration (IC50) is less than 10 nM.

Compound `COc1cc(-c2cccc(-c3cccc(NC(=O)c4cn(C)c(=O)n(C)c4=O)c3C)c2C)cc(F)c1CNCCCC(N)=O` [Example 1.081] registered an IC50 of less than 10 nM.

`COc1cc(-c2cccc(-c3cccc(NC(=O)c4cn(C)c(=O)n(C)c4=O)c3C)c2C)cc(F)c1CNCCC1CNC(=O)C1` (stereo not drawn) [Example 1.082] had an IC50 of less than 10 nM. The compound `COc1cc(-c2cccc(-c3cccc(NC(=O)c4c[nH]c(=O)n(C)c4=O)c3C)c2C)cc(F)c1CNCCCC(N)=O` [Example 1.083] gave an IC50 of less than 10 nM. Then `COc1cc(-c2cccc(-c3cccc(NC(=O)c4cncn(C)c4=O)c3C)c2C)cc(F)c1CN(C)[C@@H]1CNC(=O)C1` [Example 1.084], with 10 to 1000 nM. For `COc1cc(-c2cccc(-c3cccc(NC(=O)c4c[nH]c(=O)n(C)c4=O)c3C)c2C)cc(F)c1CNCC(C)(C)C(N)=O` [Example 1.085], the IC50 was less than 10 nM. The compound `COc1cc(-c2cccc(-c3cccc(NC(=O)c4c[nH]c(=O)n(C)c4=O)c3C)c2C)cc(F)c1CNCCC1CNC(=O)C1` (stereo not drawn) [Example 1.086] returned an IC50 of less than 10 nM. With `COc1cc(-c2cccc(-c3cccc(NC(=O)c4cncn(C)c4=O)c3C)c2C)cc(F)c1CNC1CCOCC1` [Example 1.087], the IC50 was less than 10 nM. The compound `COc1cc(-c2cccc(-c3cccc(NC(=O)c4nn(C)c(=O)n(C)c4=O)c3C)c2C)cc(F)c1CNCC[C@@H]1CCC(=O)N1` [Example 1.088] registered an IC50 of less than 10 nM. The same measure for `COc1cc(-c2cccc(-c3cccc(NC(=O)c4nn(C)c(=O)n(C)c4=O)c3C)c2C)cc(F)c1CN[C@H]1CCC(=O)NC1` [Example 1.089]: less than 10 nM; for `COc1cc(-c2cccc(-c3cccc(NC(=O)c4nn(C)c(=O)n(C)c4=O)c3C)c2C)cc(F)c1CNCCC(N)=O` [Example 1.090]: less than 10 nM; for `COc1cc(-c2cccc(-c3cccc(NC(=O)c4cncn(C)c4=O)c3C)c2C)cc(F)c1CNCCC(N)=O` [Example 1.091]: less than 10 nM. `COc1cc(-c2cccc(-c3cccc(NC(=O)c4nn(C)c(=O)n(C)c4=O)c3C)c2C)cc(F)c1CNCCN1CCCC1=O` [Example 1.092] displayed an IC50 of less than 10 nM.

`COc1cc(-c2cccc(-c3cccc(NC(=O)c4cn(C)c(=O)n(C)c4=O)c3C)c2C)cc(F)c1CNC1CCNC(=O)C1` (stereo not drawn) [Example 1.093] had an IC50 of less than 10 nM. The compound `COc1cc(-c2cccc(-c3cccc(NC(=O)c4c[nH]c(=O)n(C)c4=O)c3C)c2C)cc(F)c1CN[C@@H]1CCC(=O)NC1` [Example 1.094] returned an IC50 of less than 10 nM. On to `COc1cc(-c2cccc(-c3cccc(NC(=O)c4cn(C)c(=O)n(C)c4=O)c3C)c2C)cc(F)c1CNCC1CCCNC1=O` (stereo not drawn) [Example 1.095], for which the IC50 is less than 10 nM. The compound `COc1cc(-c2cccc(-c3cccc(NC(=O)c4c[nH]c(=O)n(C)c4=O)c3C)c2C)cc(F)c1CNC1CCNC(=O)C1` (stereo not drawn) [Example 1.096] had an IC50 of less than 10 nM.

Compound `COc1cc(-c2cccc(-c3cccc(NC(=O)c4cccn(C)c4=O)c3C)c2C)cc(F)c1CNCc1c[nH]c(=O)[nH]c1=O` [Example 1.097] had an IC50 of less than 10 nM.

In the case of `COc1cc(-c2cccc(-c3cccc(NC(=O)c4cncn(C)c4=O)c3C)c2C)cc(F)c1CNCC1CCCNC1=O` (stereo not drawn) [Example 1.098], the IC50 is less than 10 nM. Take `COc1cc(-c2cccc(-c3cccc(NC(=O)c4cncn(C)c4=O)c3C)c2C)cc(F)c1CNCCN1CCCC1=O` [Example 1.099]: the IC50 is less than 10 nM. For `COc1cc(-c2cccc(-c3cccc(NC(=O)c4c[nH]c(=O)n(C)c4=O)c3C)c2C)cc(F)c1CNCC1CCCNC1=O` (stereo not drawn) [Example 1.100], the IC50 was less than 10 nM.

Compound `COc1cc(-c2cccc(-c3cccc(Nc4nccc5nccnc45)c3C)c2C)cc(F)c1CNCc1c[nH]c(=O)[nH]c1=O` [Example 1.101] came in with an IC50 of 10 to 1000 nM.

On to `COc1cc(-c2cccc(-c3cccc(NC(=O)c4cncn(C)c4=O)c3C)c2C)cc(F)c1CN[C@@H]1CCC(=O)NC1` [Example 1.102], for which the IC50 is less than 10 nM.

For `COc1cc(-c2cccc(-c3cccc(NC(=O)c4cncn(C)c4=O)c3C)c2C)cc(F)c1CNC1CCNC(=O)C1` (stereo not drawn) [Example 1.103], the IC50 is less than 10 nM. `COc1cc(-c2cccc(-c3cccc(NC(=O)c4nn(C)c(=O)n(C)c4=O)c3C)c2C)cc(F)c1CNC[C@@H]1CCC(=O)N1` [Example 1.104] displayed an IC50 of less than 10 nM. On to `COc1cc(-c2cccc(-c3cccc(NC(=O)c4nn(C)c(=O)n(C)c4=O)c3C)c2C)cc(F)c1CN[C@@H]1CNC(=O)C1` [Example 1.105], for which the IC50 is less than 10 nM. `COc1cc(-c2cccc(-c3cccc(NC(=O)c4nn(C)c(=O)n(C)c4=O)c3C)c2C)cc(F)c1CNCCC1CCC(=O)N1` (stereo not drawn) [Example 1.106]: the IC50 is less than 10 nM. In the case of `COc1cc(-c2cccc(-c3cccc(NC(=O)c4cn(C)c(=O)n(C)c4=O)c3C)c2C)cc(F)c1CN[C@@H]1CCC(=O)NC1` [Example 1.107], the IC50 is less than 10 nM.

Compound `COc1cc(-c2cccc(-c3cccc(NC(=O)c4cn(C)c(=O)n(C)c4=O)c3C)c2C)cc(F)c1CNCC[C@@H]1CCC(=O)N1` [Example 1.108] gave an IC50 of less than 10 nM.
